Test results published in US20050070480A1, “Peptide arginals and methods for treating disseminated intravascular coagulation” (priority 2001, published 2005).
Where two headings read alike, the source gives them in different places.

Key:
[1] = biological target: tissue plasminogen activator (tPA) (Homo sapiens, UniProt P00750); assay: Fibrin plate assay, tissue plasminogen activator; format: biochemical; settings: reduction of lysed area to 50% of control, read-out: LA50 tPA
Text: (§1) Inhibitory effects of the compounds of the invention on plasmin (PL) and plasmin generation by plasminogen (Plogen) activators, such as tissue plasminogen activator (tPA), and urokinase (UK) were examined by the fibrin plate assay. (See e.g., Bagdy, D., Barabás, E., Bajusz, S., and Széll, E., Thromb. Haemostas., 67:325-330 (1992); Barabás, E. Szell, E. and Bajusz, S, Blood Coagulation and Fibrinolysis, 4: 243 (1993)) The results are shown in Table 1, Column C. With a few exceptions the analogues are somewhat more inhibitory than Efegatran against the three fibrinolytic enzymes.

citrated human plasma [2] = assay: Prothrombin time (PT) plasma clotting assay; format: biochemical
Description: (§2) The inhibitory effect on plasma coagulation was evaluated in the thrombin time (TT), activated partial thromboplastin time (APTT) and prothrombin time (PT) assays by using citrated human plasma as substrate [Bagdy, D. et. al.: Thromb. Haemostas. 67, 325 (1992)]. The TT assay measures the inhibition of a single step, the coagulation of fibrinogen on the action of exogenous thrombin (final concentration 2.5 NIH U/ml). Clotting of plasma in the APTT and PT assays was induced by recalcification. Endogenous thrombin generated could theoretically be present at a final concentration as high as 50 NIH U/ml (APTT, PT). These assays detect the sum of inhibitory actions on fibrin formation and thrombin generation, which includes several proteolytic reactions mediated by either thrombin or other enzymes, e.g. fXa. Anticlotting activity is expressed in CT2, which is the concentration (nM) required to double the clotting time.

LPS-treated rats = assay: Survival in a rat model for disseminated intravascular coagulation; format: in vivo; settings: for Survival rate %: rats, 30 mg/kg LPS i.v.
clot-bound thrombin = clot-bound thrombin (Homo sapiens, UniProt P00734); assay: Enzyme inhibition in platelet-rich plasma clots, chromogenic substrate Tos-Gly-Pro-Arg-pNA; format: biochemical; settings: for IC50: clot-bound thrombin, platelet-rich plasma clot
Description: (§3) Tos-Gly-Pro-Arg-pNA (S1) for thrombin and Moc-D-Chg-Gly-Arg-pNA (S2) for factor Xa, as published (Bajusz, S. et al.: PCT Pub. No. WO97/46576) briefly. The assays were carried out at room temperature in glass tubes and 96-well microtiter plates.
(§4) Solutions, (i) Buffer A: 0.1 M sodium phosphate/0.05 M NaCl (pH 8.5). (ii) Inhibitors: 0.1, 1.0 and 10 mg/ml solutions in buffer A containing 0.02% human albumin. (iii) Substrates: 1 mM of S1 and 2 mM of S2 in distilled water.
(§5) (b) Preparation of plasma clots. Platelet rich plasma samples (200 μl) placed in glass tubes were incubated at room temperature with 80 μl 40 mM CaCl2 for 60 min. The clots were washed with 2 ml aliquots of saline (0.9% NaCl) with gentle agitation to remove unbound enzymes In case of successful washing the optical density of the reaction mixture of wash and S1 is less than 5% of the control. The plasma clot thus obtained was kept under saline in the tube until use.
(§6) (c) Assessment of the enzyme inhibition in the clots. After removal of saline, the plasma clot was incubated at 37° C. with 400 μl inhibitor (or buffer A as negative control) for 5 min. and with 100 μl substrate S1 or S3 for 30 min., then the reaction was stopped with 100 μl 50% acetic acid. 150 μl portions of the reaction mixtures were placed in the wells of a microtiter plate and read at 405 nm (ELISA READER 800, Bio-Tek Instruments Inc. Winooski, Vt., USA). IC50 values were generated from the extinction data graphically.

[3] = system: endotoxin-treated rabbits; format: in vivo, rabbit
plasmin (PL) = plasmin (PL) (Homo sapiens, UniProt P00747); assay: Fibrin plate assay, plasmin; format: biochemical; settings: reduction of lysed area to 50% of control, read-out: LA50 PL
Sequence of plasmin (PL) (P00747 581-810 limits assumed, species assumed): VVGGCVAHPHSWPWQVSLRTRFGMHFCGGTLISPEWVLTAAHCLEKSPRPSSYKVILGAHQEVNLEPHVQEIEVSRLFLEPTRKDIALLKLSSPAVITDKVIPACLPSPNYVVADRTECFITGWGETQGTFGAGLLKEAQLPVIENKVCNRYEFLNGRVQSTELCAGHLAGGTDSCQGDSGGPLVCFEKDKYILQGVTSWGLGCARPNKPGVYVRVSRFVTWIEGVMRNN
Sequence of plasmin (PL) (P00747 97-580 limits assumed, species assumed): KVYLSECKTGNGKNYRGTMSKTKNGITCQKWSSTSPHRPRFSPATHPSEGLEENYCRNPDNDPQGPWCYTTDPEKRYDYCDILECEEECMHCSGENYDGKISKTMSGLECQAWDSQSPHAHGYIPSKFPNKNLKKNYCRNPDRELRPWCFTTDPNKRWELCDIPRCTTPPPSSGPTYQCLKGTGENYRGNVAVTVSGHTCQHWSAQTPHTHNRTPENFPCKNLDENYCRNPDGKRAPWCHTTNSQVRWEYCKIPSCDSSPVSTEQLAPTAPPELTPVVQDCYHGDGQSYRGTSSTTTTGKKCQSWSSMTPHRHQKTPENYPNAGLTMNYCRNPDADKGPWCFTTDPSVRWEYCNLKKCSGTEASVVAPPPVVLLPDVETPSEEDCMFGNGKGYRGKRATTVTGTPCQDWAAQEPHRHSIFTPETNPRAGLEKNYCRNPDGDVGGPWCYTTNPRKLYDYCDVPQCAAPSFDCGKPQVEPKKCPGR
Text: as §1

urokinase (UK) = urokinase (UK) (Homo sapiens, UniProt P00749); assay: Fibrin plate assay, urokinase; format: biochemical; settings: for IC50: reduction of lysed area to 50% of control, urokinase, read-out: LA50 UK
Text: as §1

clot-bound factor Xa = clot-bound factor Xa (Homo sapiens, UniProt P00742); assay: Enzyme inhibition in platelet-rich plasma clots, chromogenic substrate Moc-D-Chg-Gly-Arg-pNA; format: biochemical
Sequence of clot-bound factor Xa (P00742 235-488 limits assumed): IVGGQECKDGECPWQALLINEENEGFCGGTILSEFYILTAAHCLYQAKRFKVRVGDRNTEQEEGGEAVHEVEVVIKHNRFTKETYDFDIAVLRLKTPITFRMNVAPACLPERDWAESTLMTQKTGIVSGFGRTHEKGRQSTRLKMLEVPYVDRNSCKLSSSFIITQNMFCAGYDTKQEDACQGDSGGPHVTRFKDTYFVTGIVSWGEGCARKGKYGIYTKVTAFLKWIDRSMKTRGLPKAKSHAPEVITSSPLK
Sequence of clot-bound factor Xa (P00742 41-179 limits assumed): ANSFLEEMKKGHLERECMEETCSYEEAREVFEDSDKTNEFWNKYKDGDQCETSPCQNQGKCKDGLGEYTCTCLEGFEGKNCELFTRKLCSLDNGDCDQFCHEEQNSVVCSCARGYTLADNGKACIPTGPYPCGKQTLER
Description: as §3, §4, §5, §6

[4] = system: citrated human plasma (exogenous thrombin); assay: Thrombin time (TT) plasma clotting assay; format: biochemical; settings: thrombin 2.5 NIH U/ml
Description: as §2

citrated human plasma [5] = assay: Activated partial thromboplastin time (APTT) plasma clotting assay; format: biochemical
Description: as §2

[6] = 0.75 mg/kg bolus + infusion, 0 hours
[7] = 0.75 mg/kg bolus + infusion, 4 hours
[8] = 0.75 mg/kg bolus + infusion, 5 hours
[9] = 0.75 mg/kg bolus + infusion, 6 hours
[10] = 0.75 mg/kg bolus + infusion, 7 hours
[11] = 0.75 mg/kg bolus + infusion, 8 hours
[12] = 1.5 mg/kg bolus + infusion, 0 hours
[13] = 1.5 mg/kg bolus + infusion, 4 hours
[14] = 1.5 mg/kg bolus + infusion, 5 hours
[15] = 1.5 mg/kg bolus + infusion, 6 hours
[16] = 1.5 mg/kg bolus + infusion, 7 hours
[17] = 1.5 mg/kg bolus + infusion, 8 hours
[18] = endotoxin-treated rabbits, 0.25 mg/kg/h infusion, 2 hrs
[19] = endotoxin-treated rabbits, 0.25 mg/kg/h infusion, 4 hrs
[20] = endotoxin-treated rabbits, 0.5 mg/kg/h infusion, 2 hrs
[21] = endotoxin-treated rabbits, 0.5 mg/kg/h infusion, 4 hrs

Sequence of tissue plasminogen activator (tPA) (P00750 36-562, species assumed): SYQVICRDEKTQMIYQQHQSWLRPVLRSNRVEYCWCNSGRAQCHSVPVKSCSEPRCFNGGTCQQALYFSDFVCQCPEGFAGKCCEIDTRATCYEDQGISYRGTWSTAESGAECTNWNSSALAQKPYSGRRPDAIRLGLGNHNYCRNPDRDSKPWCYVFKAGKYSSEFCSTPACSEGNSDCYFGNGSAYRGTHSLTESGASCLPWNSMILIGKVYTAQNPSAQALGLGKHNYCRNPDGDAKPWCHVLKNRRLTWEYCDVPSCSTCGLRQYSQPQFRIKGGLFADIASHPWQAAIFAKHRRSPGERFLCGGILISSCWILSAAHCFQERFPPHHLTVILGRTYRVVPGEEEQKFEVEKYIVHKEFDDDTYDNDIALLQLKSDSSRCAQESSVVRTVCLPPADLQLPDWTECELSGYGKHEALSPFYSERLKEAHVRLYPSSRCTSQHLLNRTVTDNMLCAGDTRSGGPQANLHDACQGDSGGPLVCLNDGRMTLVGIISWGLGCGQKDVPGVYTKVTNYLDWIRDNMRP

Compound | IC50 [1] [µM] | CT2 PT (concentration required for doubling the clotting time) (citrated human plasma [2]) [nM] | Survival rate % (LPS-treated rats; [6]) [%] | Survival rate % (LPS-treated rats; [7]) [%] | Survival rate % (LPS-treated rats; [8]) [%] | Survival rate % (LPS-treated rats; [9]) [%] | Survival rate % (LPS-treated rats; [10]) [%] | Survival rate % (LPS-treated rats; [11]) [%] | Survival rate % (LPS-treated rats; [12]) [%] | Survival rate % (LPS-treated rats; [13]) [%] | Survival rate % (LPS-treated rats; [14]) [%] | Survival rate % (LPS-treated rats; [15]) [%] | Survival rate % (LPS-treated rats; [16]) [%] | Survival rate % (LPS-treated rats; [17]) [%] | IC50 (clot-bound thrombin) [µM] | IC50 (plasmin (PL)) [µM] | IC50 (urokinase (UK)) [µM] | IC50 (clot-bound factor Xa) [µM] | CT2 TT (concentration required for doubling the clotting time) [4] [nM] | CT2 APTT (concentration required for doubling the clotting time) (citrated human plasma [5]) [nM] | further results
CN[C@H](Cc1ccccc1)C(=O)N1CCC[C@H]1C(=O)N[C@H](C=O)CCCN=C(N)N [C, D-MePhe-Pro-Arg-H, reference compound] | 132 | 2915 | 100 | 93 | 73 | 67 | 33 | 27 | 100 | 100 | 100 | 100 | 92 | 92 | 0.375 | 54 | 82 | 1 | 87 | 622 | Survival rate % (LPS-treated rats; 1.0 mg/kg bolus + infusion, 0 hours): 100%; Survival rate % (LPS-treated rats; 1.0 mg/kg bolus + infusion, 4 hours): 83%; Survival rate % (LPS-treated rats; 1.0 mg/kg bolus + infusion, 5 hours): 83%; Survival rate % (LPS-treated rats; 1.0 mg/kg bolus + infusion, 6 hours): 66%; Survival rate % (LPS-treated rats; 1.0 mg/kg bolus + infusion, 7 hours): 58%; Survival rate % (LPS-treated rats; 1.0 mg/kg bolus + infusion, 8 hours): 50%; Lethality %, 2 hrs [3, 18]: 7%; Lethality no. died/treated animals, 2 hrs [3, 18]: 1/14; Lethality %, 4 hrs [3, 19]: 36%; Lethality no. died/treated animals, 4 hrs [3, 19]: 5/14; Lethality %, 2 hrs [3, 20]: 7%; Lethality no. died/treated animals, 2 hrs [3, 20]: 1/15; Lethality %, 4 hrs [3, 21]: 40%; Lethality no. died/treated animals, 4 hrs [3, 21]: 6/15
N=C(N)NCCC[C@@H](C=O)NC(=O)[C@@H]1CCCN1C(=O)[C@H](O)CC1CCCCCC1 [Compound 3, D-cycloheptyllactyl-L-prolyl-L-arginine aldehyde] | 10 | 1082 | 100 | 100 | 100 | 100 | 100 | 92 | 100 | 100 | 100 | 100 | 100 | 92 | 0.095 | 21 | 85 | 0.117 | 86 | 281 | Effectiveness on survival compared with reference C (in words) (LPS-treated rats; LPS-treated rats): more effective than reference C; Survival rate % (LPS-treated rats; 0.5 mg/kg bolus + infusion, 0 hours): 100%; Survival rate % (LPS-treated rats; 0.5 mg/kg bolus + infusion, 4 hours): 100%; Survival rate % (LPS-treated rats; 0.5 mg/kg bolus + infusion, 5 hours): 100%; Survival rate % (LPS-treated rats; 0.5 mg/kg bolus + infusion, 6 hours): 100%; Survival rate % (LPS-treated rats; 0.5 mg/kg bolus + infusion, 7 hours): 100%; Survival rate % (LPS-treated rats; 0.5 mg/kg bolus + infusion, 8 hours): 80%; Inhibition of clot-bound thrombin compared with Efegatran (in words) (clot-bound thrombin): surpass Efegatran; Effect on lethality of endotoxin-treated rabbits (in words) ([3]; rabbit, in vivo): significantly reduce the lethality; Lethality %, 2 hrs ([3]; rabbit, in vivo, 0.25 mg/kg): 0%; Lethality %, 4 hrs ([3]; rabbit, in vivo, 0.25 mg/kg): 18%; Lethality no. died/treated animals, 2 hrs ([3]; rabbit, in vivo, 0.25 mg/kg): 0/22; Lethality no. died/treated animals, 4 hrs ([3]; rabbit, in vivo, 0.25 mg/kg): 4/22; Activity against UK compared with Efegatran (in words) (urokinase (UK)): almost equiactive with Efegatran
